For orientation: inhibition means the drop in the measured response relative to a control, in per cent.

The record followed here is US20220009920A1 (GB005, Inc., priority 2020, published 2022).

Common to all, as to assay: Large panel kinase profiling
Common to all, as to type: biochemical
What all share (details): 1 μM test article, 1 mM ATP

In one assay the target is RPS6KA2/RSK3 (Homo sapiens, UniProt Q15349). The method, boiled down: (§1)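 Reactions contain 1 mM ATP and 1 μM test article; the CSox peptide sensor reports phosphorylation as fluorescence gain. Temperature is held at 30° C. while signal (360 nm excitation, 485 nm emission) is recorded every 1 min.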
The target of a further assay is T1, RPS6KA3/RSK2 (Homo sapiens, UniProt P51812).
T1 construct: AssayQuant Technologies, Inc. (contract assay)
The method, boiled down:
as §1

In a further assay the target is RIPK2 (Homo sapiens, UniProt O43353). The essentials: as §1
Another assay concerns the target T2, CDK1/B1 (Homo sapiens, UniProt P06493).
T2 construct: AssayQuant Technologies, Inc. (ran the panel)
The essentials: as §1

The next assay addresses EIF2AK4/GCN2 (Homo sapiens, UniProt Q9P2K8). The essentials: as §1
The next assay concerns the target FES (Homo sapiens, UniProt P07332). The essentials:
as §1

Another assay deals with EPHA5 (Homo sapiens, UniProt P54756). The essentials:
as §1

Another assay deals with T3, CSNK1A1/CK1A1 (Homo sapiens, UniProt P48729).
T3 construct: AssayQuant Technologies, Inc. (service laboratory)
The method, boiled down: as §1

A further assay concerns the target PRKDC/DNA-PK (Homo sapiens, UniProt P78527). The essentials: as §1
The target of another assay is T4, SK3 (Homo sapiens, UniProt Q9Y2K2).
T4 construct: AssayQuant Technologies, Inc. (contract assay)
The essentials: as §1

The next assay deals with T5, GRK3 (Homo sapiens, UniProt P35626).
T5 construct: AssayQuant Technologies, Inc. (service provider)
T5 sequence (P35626 1-688): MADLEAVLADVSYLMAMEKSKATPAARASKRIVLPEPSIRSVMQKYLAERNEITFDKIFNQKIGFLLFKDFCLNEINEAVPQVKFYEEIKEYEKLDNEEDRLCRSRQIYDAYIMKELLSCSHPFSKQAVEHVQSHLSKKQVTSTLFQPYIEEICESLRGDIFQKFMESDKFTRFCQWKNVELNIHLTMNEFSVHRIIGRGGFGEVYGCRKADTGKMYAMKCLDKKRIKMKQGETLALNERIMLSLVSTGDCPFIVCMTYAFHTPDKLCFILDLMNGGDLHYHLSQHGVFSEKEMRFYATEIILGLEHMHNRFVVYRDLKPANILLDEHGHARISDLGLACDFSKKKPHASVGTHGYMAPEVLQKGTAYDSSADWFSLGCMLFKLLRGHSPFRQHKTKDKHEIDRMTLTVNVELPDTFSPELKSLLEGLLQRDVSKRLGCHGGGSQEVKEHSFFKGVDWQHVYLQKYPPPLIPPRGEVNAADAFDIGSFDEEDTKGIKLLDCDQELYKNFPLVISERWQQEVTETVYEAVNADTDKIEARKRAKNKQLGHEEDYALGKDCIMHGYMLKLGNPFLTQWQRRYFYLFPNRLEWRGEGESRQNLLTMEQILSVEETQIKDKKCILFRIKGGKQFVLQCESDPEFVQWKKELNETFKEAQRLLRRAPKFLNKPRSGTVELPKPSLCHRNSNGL
The essentials:
as §1

Another assay has as its target T6, MAP4K4/HGK (Homo sapiens, UniProt O95819).
T6 construct: AssayQuant Technologies, Inc. (service provider)
The essentials: as §1

Another assay deals with T7, MAPK13/P38D (Homo sapiens, UniProt O15264).
T7 construct: AssayQuant Technologies, Inc. (service provider)
T7 sequence (O15264 1-365): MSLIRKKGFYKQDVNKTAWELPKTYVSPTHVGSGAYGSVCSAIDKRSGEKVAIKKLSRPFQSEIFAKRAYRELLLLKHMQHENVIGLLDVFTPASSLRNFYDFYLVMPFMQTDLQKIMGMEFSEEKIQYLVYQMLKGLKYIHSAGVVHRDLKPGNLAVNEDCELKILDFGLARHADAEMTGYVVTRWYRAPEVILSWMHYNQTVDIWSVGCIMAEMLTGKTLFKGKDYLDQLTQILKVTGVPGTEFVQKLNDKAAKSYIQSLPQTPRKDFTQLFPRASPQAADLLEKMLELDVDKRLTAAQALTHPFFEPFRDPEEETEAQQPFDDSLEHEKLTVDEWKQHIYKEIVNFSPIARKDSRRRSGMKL
The essentials:
as §1

In another assay the target is T8, MAP3K8 (Homo sapiens, UniProt P41279).
T8 construct: AssayQuant Technologies, Inc. (service provider)
The method, boiled down:
as §1

Another assay has as its target T9, MAP4K1/HPK1 (Homo sapiens, UniProt Q92918).
T9 construct: AssayQuant Technologies, Inc. (service provider)
The method, boiled down: as §1

For a further assay, the target named is T10, CLK1 (Homo sapiens, UniProt P49759).
T10 construct: AssayQuant Technologies, Inc. (service laboratory)
The method, boiled down:
as §1

For the next assay, the target named is T11, CDK5/P25 (Homo sapiens, UniProt Q00535).
T11 construct: AssayQuant Technologies, Inc. (ran the panel)
The method, boiled down: as §1

In the next assay the target is T12, HIPK2 (Homo sapiens, UniProt Q9H2X6).
T12 construct: AssayQuant Technologies, Inc. (service provider)
The method, boiled down:
as §1

In the next assay the target is ABL1 (Homo sapiens, UniProt P00519). The method, boiled down:
as §1

A further assay addresses PRKCB1/PKCB1 (Homo sapiens, UniProt P05771). The method, boiled down:
as §1

The target in a further assay is T13, GSK3B (Homo sapiens, UniProt P49841).
T13 construct: AssayQuant Technologies, Inc. (service provider)
The method, boiled down: as §1

T6 sequence (O95819 whole entry): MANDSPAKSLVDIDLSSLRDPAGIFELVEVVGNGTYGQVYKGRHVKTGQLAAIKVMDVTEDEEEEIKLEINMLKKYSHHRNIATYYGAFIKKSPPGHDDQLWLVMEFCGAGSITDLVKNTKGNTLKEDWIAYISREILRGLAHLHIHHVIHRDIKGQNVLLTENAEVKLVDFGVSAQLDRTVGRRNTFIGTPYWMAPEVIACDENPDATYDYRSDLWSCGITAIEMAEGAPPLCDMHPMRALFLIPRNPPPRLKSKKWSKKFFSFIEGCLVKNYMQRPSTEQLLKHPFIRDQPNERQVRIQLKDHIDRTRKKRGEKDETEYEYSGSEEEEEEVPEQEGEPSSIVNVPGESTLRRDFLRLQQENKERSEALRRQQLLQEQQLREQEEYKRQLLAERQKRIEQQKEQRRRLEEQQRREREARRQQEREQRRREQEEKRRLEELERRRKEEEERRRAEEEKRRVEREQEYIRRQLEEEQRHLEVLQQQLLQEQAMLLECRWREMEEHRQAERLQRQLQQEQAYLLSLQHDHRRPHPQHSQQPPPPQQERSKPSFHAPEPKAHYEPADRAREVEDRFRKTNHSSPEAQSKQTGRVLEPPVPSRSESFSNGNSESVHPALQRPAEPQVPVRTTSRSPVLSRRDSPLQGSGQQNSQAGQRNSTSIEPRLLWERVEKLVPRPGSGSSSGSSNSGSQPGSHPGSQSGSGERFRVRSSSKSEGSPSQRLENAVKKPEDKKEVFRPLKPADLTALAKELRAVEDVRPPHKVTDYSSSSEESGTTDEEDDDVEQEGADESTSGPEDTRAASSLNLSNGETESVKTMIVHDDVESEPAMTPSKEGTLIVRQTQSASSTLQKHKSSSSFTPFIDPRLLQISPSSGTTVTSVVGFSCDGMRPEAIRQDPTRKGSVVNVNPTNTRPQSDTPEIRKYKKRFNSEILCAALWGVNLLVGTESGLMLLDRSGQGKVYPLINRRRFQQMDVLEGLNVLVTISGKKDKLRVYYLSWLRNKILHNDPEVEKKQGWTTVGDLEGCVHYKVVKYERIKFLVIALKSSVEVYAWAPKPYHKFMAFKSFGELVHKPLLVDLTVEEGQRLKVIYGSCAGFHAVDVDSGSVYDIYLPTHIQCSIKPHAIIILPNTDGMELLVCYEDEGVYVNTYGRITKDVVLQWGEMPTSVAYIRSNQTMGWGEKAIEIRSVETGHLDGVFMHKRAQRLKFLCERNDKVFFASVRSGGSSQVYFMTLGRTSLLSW
T2 sequence (P06493 whole entry, species assumed): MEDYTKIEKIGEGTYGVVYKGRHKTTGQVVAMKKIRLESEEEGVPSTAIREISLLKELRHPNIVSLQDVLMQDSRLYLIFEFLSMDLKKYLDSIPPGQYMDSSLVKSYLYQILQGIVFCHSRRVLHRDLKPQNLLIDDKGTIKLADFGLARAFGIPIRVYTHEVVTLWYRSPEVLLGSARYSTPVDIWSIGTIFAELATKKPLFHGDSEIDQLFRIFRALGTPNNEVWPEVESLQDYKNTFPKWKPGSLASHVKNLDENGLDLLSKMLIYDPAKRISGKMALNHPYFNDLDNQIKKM
T2 sequence (P14635 whole entry partner, species assumed): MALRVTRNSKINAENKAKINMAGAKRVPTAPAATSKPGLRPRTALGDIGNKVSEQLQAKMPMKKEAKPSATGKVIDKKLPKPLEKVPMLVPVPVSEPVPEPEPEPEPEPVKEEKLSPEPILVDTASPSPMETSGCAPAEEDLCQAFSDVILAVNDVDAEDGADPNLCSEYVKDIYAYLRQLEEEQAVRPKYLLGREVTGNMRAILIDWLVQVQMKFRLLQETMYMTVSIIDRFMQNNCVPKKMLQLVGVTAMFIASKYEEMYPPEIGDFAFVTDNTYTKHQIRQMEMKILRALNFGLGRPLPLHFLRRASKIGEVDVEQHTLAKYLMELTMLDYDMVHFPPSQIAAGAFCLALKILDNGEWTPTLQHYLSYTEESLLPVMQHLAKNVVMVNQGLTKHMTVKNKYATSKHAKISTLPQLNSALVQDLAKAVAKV
Chain of RPS6KA2/RSK3 (Q15349 whole entry): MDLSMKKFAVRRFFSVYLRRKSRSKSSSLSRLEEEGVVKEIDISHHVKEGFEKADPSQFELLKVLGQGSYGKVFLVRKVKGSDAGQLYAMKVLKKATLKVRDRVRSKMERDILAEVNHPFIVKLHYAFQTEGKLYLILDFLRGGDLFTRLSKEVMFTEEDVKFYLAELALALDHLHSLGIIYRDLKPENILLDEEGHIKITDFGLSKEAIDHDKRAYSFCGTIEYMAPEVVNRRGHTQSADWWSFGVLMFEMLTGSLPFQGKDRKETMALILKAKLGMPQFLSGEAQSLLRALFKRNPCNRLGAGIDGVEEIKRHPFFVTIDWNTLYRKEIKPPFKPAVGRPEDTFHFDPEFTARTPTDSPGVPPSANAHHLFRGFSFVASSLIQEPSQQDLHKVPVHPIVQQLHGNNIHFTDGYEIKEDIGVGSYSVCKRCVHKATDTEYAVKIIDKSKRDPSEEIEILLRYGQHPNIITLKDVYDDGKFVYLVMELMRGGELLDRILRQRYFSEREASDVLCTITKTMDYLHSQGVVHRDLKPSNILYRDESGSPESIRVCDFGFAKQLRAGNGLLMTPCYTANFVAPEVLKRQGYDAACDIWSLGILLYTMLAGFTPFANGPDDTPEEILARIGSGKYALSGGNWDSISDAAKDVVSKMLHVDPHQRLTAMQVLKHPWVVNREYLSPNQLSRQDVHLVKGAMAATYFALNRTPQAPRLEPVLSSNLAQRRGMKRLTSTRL
T4 sequence (Q9Y2K2 whole entry): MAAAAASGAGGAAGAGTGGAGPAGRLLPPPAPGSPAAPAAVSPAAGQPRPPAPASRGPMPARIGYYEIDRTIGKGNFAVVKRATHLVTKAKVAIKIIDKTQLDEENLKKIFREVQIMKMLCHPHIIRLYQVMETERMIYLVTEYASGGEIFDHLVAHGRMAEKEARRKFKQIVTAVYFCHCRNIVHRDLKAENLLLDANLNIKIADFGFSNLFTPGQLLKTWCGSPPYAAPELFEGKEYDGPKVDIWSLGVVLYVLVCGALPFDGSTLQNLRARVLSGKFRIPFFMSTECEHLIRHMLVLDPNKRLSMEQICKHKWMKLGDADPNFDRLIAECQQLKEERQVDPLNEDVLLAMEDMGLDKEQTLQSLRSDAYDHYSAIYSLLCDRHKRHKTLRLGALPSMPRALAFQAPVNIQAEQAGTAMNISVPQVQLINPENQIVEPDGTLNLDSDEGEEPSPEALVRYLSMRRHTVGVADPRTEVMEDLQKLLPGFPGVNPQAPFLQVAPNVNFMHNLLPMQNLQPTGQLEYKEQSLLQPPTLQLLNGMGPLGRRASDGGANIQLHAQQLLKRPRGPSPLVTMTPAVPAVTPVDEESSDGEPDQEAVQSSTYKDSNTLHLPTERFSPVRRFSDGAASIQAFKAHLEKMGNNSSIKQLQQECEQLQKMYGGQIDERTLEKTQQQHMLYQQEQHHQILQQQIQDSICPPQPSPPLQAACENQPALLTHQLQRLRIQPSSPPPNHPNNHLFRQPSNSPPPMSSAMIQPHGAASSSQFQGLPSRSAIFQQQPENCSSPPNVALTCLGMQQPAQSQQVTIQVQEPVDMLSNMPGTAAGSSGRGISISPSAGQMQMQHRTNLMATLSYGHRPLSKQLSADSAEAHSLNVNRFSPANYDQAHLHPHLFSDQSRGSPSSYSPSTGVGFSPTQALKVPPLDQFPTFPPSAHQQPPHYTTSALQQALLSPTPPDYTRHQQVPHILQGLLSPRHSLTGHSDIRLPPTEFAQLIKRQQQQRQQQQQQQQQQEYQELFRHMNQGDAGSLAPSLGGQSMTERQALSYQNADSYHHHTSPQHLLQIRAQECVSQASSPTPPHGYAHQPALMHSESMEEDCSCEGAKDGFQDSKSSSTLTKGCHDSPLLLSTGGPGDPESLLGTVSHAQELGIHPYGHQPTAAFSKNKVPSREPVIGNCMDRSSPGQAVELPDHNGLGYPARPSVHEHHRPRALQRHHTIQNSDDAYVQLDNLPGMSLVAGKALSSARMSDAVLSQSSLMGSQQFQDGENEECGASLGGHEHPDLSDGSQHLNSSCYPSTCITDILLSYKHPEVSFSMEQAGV
T3 sequence (P48729 whole entry): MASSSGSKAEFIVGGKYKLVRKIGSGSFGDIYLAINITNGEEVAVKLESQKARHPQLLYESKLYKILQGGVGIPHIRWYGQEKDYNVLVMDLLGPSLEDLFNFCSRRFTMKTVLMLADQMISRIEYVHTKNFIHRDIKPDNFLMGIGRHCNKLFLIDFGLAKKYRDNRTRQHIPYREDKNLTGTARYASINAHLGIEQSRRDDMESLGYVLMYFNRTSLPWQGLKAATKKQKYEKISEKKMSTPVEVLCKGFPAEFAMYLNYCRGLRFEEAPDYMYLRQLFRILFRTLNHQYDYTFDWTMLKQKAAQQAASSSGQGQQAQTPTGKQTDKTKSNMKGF
T11 sequence (Q00535 whole entry, species assumed): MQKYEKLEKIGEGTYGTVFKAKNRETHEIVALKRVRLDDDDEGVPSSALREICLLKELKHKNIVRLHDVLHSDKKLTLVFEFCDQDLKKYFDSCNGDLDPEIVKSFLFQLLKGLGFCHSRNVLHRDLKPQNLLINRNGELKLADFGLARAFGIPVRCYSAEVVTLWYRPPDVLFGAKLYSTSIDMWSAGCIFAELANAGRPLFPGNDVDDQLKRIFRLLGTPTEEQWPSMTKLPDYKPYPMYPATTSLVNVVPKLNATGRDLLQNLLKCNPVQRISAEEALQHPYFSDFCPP
T11 sequence (Q15078 99-307 partner limits assumed, species assumed): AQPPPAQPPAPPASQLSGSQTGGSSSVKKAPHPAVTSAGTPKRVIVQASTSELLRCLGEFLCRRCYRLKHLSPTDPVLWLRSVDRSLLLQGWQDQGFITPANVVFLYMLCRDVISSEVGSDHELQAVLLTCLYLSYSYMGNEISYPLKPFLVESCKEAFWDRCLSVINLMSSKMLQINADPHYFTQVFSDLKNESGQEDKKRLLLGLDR

Turning to `C=CC(=O)N1CCC[C@@H](c2c(F)cc(C(N)=O)c3[nH]c4c(c23)CCC4)C1` [Compound 10-2, (S)-8-(1-acryloylpiperidin-3-yl)-7-fluoro-1,2,3,4-tetrahydrocyclo-penta[b]indole-5-carboxamide], the inhibition at 1 µM at RPS6KA2/RSK3 is -38%; against RPS6KA3/RSK2 it was -27.7%; against RIPK2 it was -45.4%; at CDK1/B1, -3.8%; on EIF2AK4/GCN2, 29.1%; on FES, -31.2%. In addition, the inhibition at 1 µM against EPHA5 is -13.5%; against CSNK1A1/CK1A1, -2.8%; against PRKDC/DNA-PK it was 14.6%; on SK3, 11.6%; on GRK3, -42.7%; on MAP4K4/HGK, -10.5%. For the same compound, the inhibition at 1 µM against MAPK13/P38D was 9%; on MAP3K8, 4.5%; on MAP4K1/HPK1, 0.8%; against CLK1, -11.1%; against CDK5/P25, 1.6%; against HIPK2 it was -66.1%. Also, the inhibition at 1 µM is 3.1% against ABL1, -9.4% against PRKCB1/PKCB1 and -12.5% on GSK3B.
As to `C=CC(=O)N1CCCC(c2c(F)cc(C(N)=O)c3[nH]c4c(c23)CCCCC4)C1` (single isomer, unassigned) [Compound 5-6], the inhibition at 1 µM at RPS6KA2/RSK3 was 1.7%; on RPS6KA3/RSK2, 5.8%; at RIPK2, 7.1%; at CDK1/B1, -13.7%; against EIF2AK4/GCN2, -20.4%; against FES it was 24.5%. The inhibition at 1 µM against EPHA5 was 8.1%; on CSNK1A1/CK1A1, 9.6%; at PRKDC/DNA-PK, -40.6%; at SK3, 5.3%; against GRK3, -25.6%; at MAP4K4/HGK, -22.7%. Besides, the inhibition at 1 µM was 6.7% on MAPK13/P38D; 7.4% against MAP3K8; -3.2% against MAP4K1/HPK1; -26.4% on CLK1; -11.1% on CDK5/P25; -18.6% on HIPK2. Moreover, the inhibition at 1 µM was -14.6% against ABL1, 8.6% on PRKCB1/PKCB1 and -6% against GSK3B.
`C=CC(=O)N1CCC[C@@H](c2c(F)cc(C(N)=O)c3[nH]c4c(c23)CC2(CC4)CC2)C1` [Compound 6-2, (S)-5-(1-acryloylpiperidin-3-yl)-6-fluoro-1,2,4,9-tetrahydrospiro[carbazole-3,1′-cyclopropane]-8-carboxamide]: the inhibition at 1 µM at RPS6KA2/RSK3 is -47.9%; at RPS6KA3/RSK2, -34.6%; against RIPK2, -31.3%; at CDK1/B1, -9.5%; on EIF2AK4/GCN2, 25.9%; against FES, -33%. Further, the inhibition at 1 µM is 17% against EPHA5; 11.2% against CSNK1A1/CK1A1; 35% on PRKDC/DNA-PK; 14.7% on SK3; -48.3% at GRK3; 2.9% against MAP4K4/HGK. Also, the inhibition at 1 µM at MAPK13/P38D was 26%; against MAP3K8 it was 10.1%; against MAP4K1/HPK1 it was 16.3%; on CLK1, -10.4%; against CDK5/P25 it was -13%; on HIPK2, -55.4%. Also, the inhibition at 1 µM came to 2.5% at ABL1, 8.9% at PRKCB1/PKCB1 and 18.7% at GSK3B.
